Data: patent US6562978B1, “Cyclic amine compounds as CCR5 antagonists” (Takeda Chemical Industries, Ltd., priority 1999, dated 2003)
Where a name gives a salt, the structure may show the parent alone.

These molecules were tested against T1, human CCR5 (Homo sapiens, UniProt P51681) (assay: CCR5 binding assay: inhibition of [125I]-RANTES binding to CHO/CCR5 cells). Conditions: 1.0 μM test compound, 100 pM [125I]-RANTES, room temperature 40 minutes, read-out: Inhibition Rate (%) at 1.0 μM.
T1 construct: expressed in transfected cells; whole cells in the well
T1 sequence (P51681 whole entry): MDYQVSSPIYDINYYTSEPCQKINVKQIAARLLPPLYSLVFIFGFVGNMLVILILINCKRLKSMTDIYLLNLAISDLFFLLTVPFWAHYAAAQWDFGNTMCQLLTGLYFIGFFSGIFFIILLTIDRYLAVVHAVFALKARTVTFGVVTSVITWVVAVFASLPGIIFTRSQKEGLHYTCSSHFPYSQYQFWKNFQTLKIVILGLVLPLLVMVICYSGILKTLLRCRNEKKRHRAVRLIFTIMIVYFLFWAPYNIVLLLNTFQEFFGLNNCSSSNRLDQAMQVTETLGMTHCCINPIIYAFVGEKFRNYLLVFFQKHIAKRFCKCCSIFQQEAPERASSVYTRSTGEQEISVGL
Description: (1) Cloning of Human CCR5 Chemokine Receptor
Cloning of CCR5 gene was carried out by PCR (polymerase chain reaction) from human spleen cDNA. With using 0.5 ng of spleen cDNA (Toyobo, QUICK-Clone cDNA) as template, PCR was performed in DNA Thermal Cycler 480 (Perkin-Elmer) (reaction conditions: 30 cycles of 95° C. for 1 minute, 60° C. for 1 minute, and 75° C. for 5 minutes) by adding primer set, 5′-[…]-3′ (25 pmol) and 5′-[…]-3′ (25 pmol), which were designed referring to nucleotide sequence of CCR5 gene reported by Samson et al. (Biochemistry, 35(11), 3362-3367 (1996)) and by using TaKaRa EX Taq (Takara Shuzo). The resultant PCR product was subjected to agarose gel electrophoresis to collect about 1.0 kb DNA fragment, which was subjected to Original TA Cloning Kit (Funakoshi) to carry out cloning of CCR5 gene.
(2) Preparation of Plasmid for Expression of Human […]
The plasmid obtained in the above (1) was digested with restriction enzymes XbaI (Takara Shuzo) and BamHI (Takara Shuzo) and subjected to agarose gel electrophoresis to collect about 1.0 kb DNA fragment. The DNA fragment was mixed with plasmid pcDNA3.1 (Funakoshi) for expression in animal cells, said plasmid being digested with XbaI and BamHI, and they were ligated with DNA Ligation Kit Ver.2 (Takara Shuzo). The resulting plasmid was subjected to transformation of competent cell of E. coli JM109 (Takara Shuzo) to obtain plasmid pCKR5.
(3) Introduction of Plasmid for Expression of Human CCR5 into CHO-K1 Cell and Expression of said Plasmid in CHO-KY Cell
CHO-K1 cells were grown in 750 ml of tissue culture flask (Becton Dickinson) using Ham's F12 medium (Nihon Pharmaceutical) containing 10% fetal calf serum (Life Tech Oriental) and took off with 0.5 g/L trypsin-0.2 g/L EDTA (Life Tech Oriental). The cells were washed with PBS (Life Tech Oriental), centrifuged (1000 rpm, 5 minutes), and suspended in PBS. With using Gene Pulser (Bio-Rad Laboratories), DNA was introduced into the cells under the conditions shown below. That is, to the cuvette of 0.4 cm gap were added 8×10^6 cells and 10 μg of plasmid pCKR5 for expression of human CCR5, and electroporation was carried out under 0.25 kV of voltage and […] of capacitance. The cells were transferred into Ham's F12 medium (Nihon Pharmaceutical) containing 10% fetal calf serum, and cultivated for 24 hours. The cells were again took off and centrifuged, and suspended in Ham's F12 medium (Nihon Pharmaceutical) containing 10% fetal calf serum and 500 μg/ml of geneticin (Life Tech Oriental). The suspension was diluted to give 10^4 cells/ml of the suspension, which was inoculated on 96 well plate (Becton Dickinson) to give geneticin resistant cells. The resulting geneticin resistant cells were cultivated in 96 well plate (Becton Dickinson), and cells expressing CCR5 were selected from the geneticin resistant cells. That is, in assay buffer (Ham's F12 medium containing 0.5% BSA and 20 mM HEPES (Wako Pure Chemical, pH7.2) to which was added 200 pM of [^125I]-RANTES (Amersham) as ligand, binding reaction was carried out at room temperature for 40 minutes, and the buffer was washed with cooled PBS. To the buffer was added 50 μl/well of 1M NaOH, and the mixture was stirred. Radioactivity was determined with γ-counter to select CHO/CCR5 cells which specifically bind to the ligand.
(4) Evaluation of Test Compounds Based on CCR5 Antagonistic Activity
The CHO/CCR5 were inoculated on 96 well microplate (5×10^4 cells/well) and cultivated for 24 hours. The medium was removed by means of suction, and to each well was added assay buffer containing Test Compound (191) and then 100 pM of [^125I]-RANTES (Amersham) as ligand. Binding assay was carried out at room temperature for 40 minutes, and assay buffer was removed by means of suction. Each well was washed twice with cooled PBS, and 200 μl of Microscint-20 (Packard Instrument, Inc.) was added to each well.

Structure (SMILES) | inhibition at 1 µM [%]
CC(=O)N1CCC(C(=O)N(CCCN2CCC(C#N)(Cc3ccccc3)CC2)c2cccc(Cl)c2)CC1 [Example 291, 1-Acetyl-N-[3-(4-benzyl-4-cyano-1-piperidinyl)propyl]-N-(3-chlorophenyl)-4-piperidinecarboxamide] | 84
CS(=O)(=O)N1CCC(C(=O)N(CCCN2CCC(Cc3ccc(N4CCOCC4)cc3)CC2)c2ccc(Cl)c(Cl)c2)CC1 [Example 292, N-(3,4-Dichlorophenyl)-1-(methylsulfonyl)-N-{3-[4-(4-morpholinobenzyl)-1-piperidinyl]propyl}-4-piperidinecarboxamide] | 97
CC(=O)N1CCC(C(=O)N(CCCN2CCC(Cc3ccc(-n4cnnn4)cc3)CC2)c2ccc(Cl)c(Cl)c2)CC1 [Example 300, 1-Acetyl-N-(3,4-dichlorophenyl)-N-(3-{4-[4-(1H-tetrazol-1-yl)benzyl]-1-piperidinyl}propyl)-4-piperidinecarboxamide] | 100
CC(=O)N1CCC(C(=O)N(CCCN2CCC(Cc3ccc(NS(C)(=O)=O)cc3)CC2)c2ccc(Cl)c(Cl)c2)CC1 [Example 304, 1-Acetyl-N-(3,4-dichlorophenyl)-N-[3-(4-{4-[(methylsulfonyl)amino]benzyl}-1-piperidinyl)propyl]-4-piperidinecarboxamide] | 99
CS(=O)(=O)N1CCC(C(=O)N(CCCN2CCC(Cc3ccc(-n4cnnn4)cc3)CC2)c2ccc(Cl)c(Cl)c2)CC1 [Example 309, N-(3,4-Dichlorophenyl)-1-(methylsulfonyl)-N-(3-{4-[4-(1H-tetrazol-1-yl)benzyl]-1-piperidinyl}propyl)-4-piperidinecarboxamide] | 92
CS(=O)(=O)Nc1ccc(CC2CCN(CCCN(C(=O)C3CCN(S(C)(=O)=O)CC3)c3ccc(Cl)c(Cl)c3)CC2)cc1 [Example 313-2, N-(3,4-Dichlorophenyl)-1-(methylsulfonyl)-N-[3-(4-{4-[(methylsulfonyl)amino]benzyl}-1-piperidinyl)propyl]-4-piperidinecarboxamide] | 97
CC(=O)N1CCC(C(=O)N(CCCN2CCC(Cc3ccc(N4CCOCC4)cc3)CC2)c2ccc(Cl)c(Cl)c2)CC1 [Example 318, 1-Acetyl-N-(3,4-dichlorophenyl)-N-{3-[4-(4-morpholinobenzyl)-1-piperidinyl]propyl}-4-piperidinecarboxamide] | 100
CS(=O)(=O)c1ccc(S(=O)(=O)C2CCN(CCCN(C(=O)C3CCN(S(C)(=O)=O)CC3)c3ccc(Cl)c(Cl)c3)CC2)cc1 [Example 334, N-(3,4-Dichlorophenyl)-1-(methylsulfonyl)-N-[3-(4-{[4-(methylsulfonyl)phenyl]sulfonyl}-1-piperidinyl)propyl]-4-piperidinecarboxamide] | 100
CCN(C1CCN(CCCN(C(=O)C2CCN(S(C)(=O)=O)CC2)c2ccc(Cl)c(Cl)c2)CC1)S(=O)(=O)c1ccc(S(C)(=O)=O)cc1 [Example 341, N-(3,4-Dichlorophenyl)-N-{3-[4-(ethyl{[4-(methylsulfonyl)phenyl]sulfonyl}amino)-1-piperidinyl]propyl}-1-(methylsulfonyl)-4-piperidinecarboxamide] | 98
CS(=O)(=O)N1CCC(C(=O)N(CCCN2CCC(Cc3ccc(S(=O)(=O)N4CCOCC4)cc3)CC2)c2ccc(Cl)c(Cl)c2)CC1 [Example 356, N-(3,4-Dichlorophenyl)-1-(methylsulfonyl)-N-(3-{4-[4-(4-morpholinylsulfonyl)benzyl]-1-piperidinyl}propyl)-4-piperidinecarboxamide] | 100
CS(=O)(=O)N1CCC(C(=O)N(CCCN2CCC(Cc3ccc(C(N)=O)cc3)CC2)c2ccc(Cl)c(Cl)c2)CC1 [Example 362, N-(3-{4-[4-(Aminocarbonyl)benzyl]-1-piperidinyl}propyl)-N-(3,4-dichlorophenyl)-1-(methylsulfonyl)-4-piperidinecarboxamide] | 95
Cc1cc(NS(=O)(=O)c2ccc(CC3CCN(CCCN(C(=O)C4CCN(S(C)(=O)=O)CC4)c4ccc(Cl)c(Cl)c4)CC3)cc2)no1 [Example 372, N-(3,4-Dichlorophenyl)-N-{3-[4-(4-{[(5-methyl-3-isoxazolyl)amino]sulfonyl}benzyl)-1-piperidinyl]propyl}-1-(methylsulfonyl)-4-piperidinecarboxamide] | 97
CS(=O)(=O)c1ccc(OC2CCN(CCCN(C(=O)C3CCN(S(C)(=O)=O)CC3)c3ccc(Cl)c(Cl)c3)CC2)cc1 [Example 374, N-(3,4-Dichlorophenyl)-1-(methylsulfonyl)-N-(3-{4-[4-(methylsulfonyl)phenoxy]-1-piperidinyl}propyl)-4-piperidinecarboxamide] | 92
CC(=O)N1CCC(C(=O)N(CCCN2CCC(Cc3ccc(C(N)=O)cc3)CC2)c2ccc(C)c(Cl)c2)CC1 [Example 376, 1-Acetyl-N-(3-{4-[4-(aminocarbonyl)benzyl]-1-piperidinyl}propyl)-N-(3-chloro-4-methylphenyl)-4-piperidinecarboxamide] | 97
CC(C)S(=O)(=O)c1ccc(CC2CCN(CCCN(C(=O)C3CCN(S(C)(=O)=O)CC3)c3ccc(Cl)c(Cl)c3)CC2)cc1 [Example 384, N-(3,4-Dichlorophenyl)-N-(3-{4-[4-(isopropylsulfonyl)benzyl]-1-piperidinyl}propyl)-1-(methylsulfonyl)-4-piperidinecarboxamide] | 100
CCS(=O)(=O)c1ccc(CC2CCN(CCCN(C(=O)C3CCN(S(C)(=O)=O)CC3)c3cccc(Cl)c3)CC2)cc1 [Example 413, N-(3-Chlorophenyl)-N-(3-{4-[4-(ethylsulfonyl)benzyl]-1-piperidinyl}propyl)-1-(methylsulfonyl)-4-piperidinecarboxamide Hydrochloride] | 99
CS(=O)(=O)c1ccc(CC2CCN(CCCN(C(=O)C3CCN(S(C)(=O)=O)CC3)c3ccc(Cl)c(Cl)c3)CC2)cc1 [Example 420, N-(3,4-Dichlorophenyl)-1-(methylsulfonyl)-N-(3-{4-[4-(methylsulfonyl)benzyl]-1-piperidinyl}propyl)-4-piperidinecarboxamide Hydrochloride] | 98
Cc1ccc(N(CCCN2CCC(Cc3ccc(C(N)=O)cc3)CC2)C(=O)C2CCN(S(C)(=O)=O)CC2)cc1Cl [Example 470, N-(3-{4-[4-(Aminocarbonyl)benzyl]-1-piperidinyl}propyl)-N-(3-chloro-4-methylphenyl)-1-(methylsulfonyl)-4-piperidinecarboxamide] | 99

What follows are molecules tested on HIV-1 Ba-L (assay: Inhibitory effect on HIV-1 infection to MAGI-CCR5 cell (blue cell count, β-galactosidase)). Conditions: Human immunodeficiency virus 1, BAL, 48 h; final concentration of Test Compound 0.032 μM; MAGI-CCR5 cells; 300PFU HIV-1 Ba-L; 37° C. for 2 days.
Assay type: cell-based
Description: By using said transformant MAGI-CCR5, degree of HIV-1 infection was calculated from β-galactosidase activity (blue color due to decomposition of 5-bromo-4-chloro-3-indolyl-β-D-galactopyranoside). Specifically, MAGI-CCR5 cells were suspended in DMEM medium containing 10% serum to prepare 5×10^4 cells/ml suspension. To each well of 96 well plate was inoculated 200 μM of the suspension, and the cells were cultivated at 37° C. overnight. The medium was removed by means of suction, and to the residue was added 100 μM of the above medium containing 0.064 μM of Test Compound and 100 μM of the above medium containing 300PFU of HIV-1 Ba-L cells. The final concentration of Test Compound was 0.032 μM. The cells were cultivated at 37° C. for 2 days. The medium was removed by means of suction. To the residue was added 200 μM of cell fixative (PBS containing 1% formaldehyde and 0.2% glutaraldehyde), and the mixture was allowed to stand at room temperature for 5 minutes and washed twice with PBS. To the mixture was added 100 μl of staining solution (PBS containing 4 μM potassium ferrocyanide, 4 μM potassium ferricyanade, 2 μM MgCl2 and 0.4 mg/ml×-gal), and the mixture was allowed to stand at 37° C. for 50 minutes and washed twice with PBS. The number of blue cells was counted by microscope and defined as the number of cells infected with HIV-1.

Structure (SMILES) | inhibition at 0.032 µM [%]
CC(=O)N1CCC(C(=O)N(CCCN2CCC(Cc3ccc(F)cc3)CC2)c2ccc(Cl)c(Cl)c2)CC1 [Example 468, 1-Acetyl-N-(3,4-dichlorophenyl)-N-{3-[4-(4-fluorobenzyl)-1-piperidinyl]propyl}-4-piperidinecarboxamide Hydrochloride] | 97
CC(=O)N1CCC(C(=O)N(CCCN2CCC(Sc3nc4ccccc4s3)CC2)c2cccc(Cl)c2)CC1 [Example 469, 1-Acetyl-N-(3-chlorophenyl)-N-[3-[4-(2-benzthiazolylthio)-1-piperidinyl]propyl]-4-piperidinecarboxamide Hydrochloride] | 96
